Some results are limits rather than exact numbers.

Here are results for 25 molecules from patent publication US20250059184A1 (priority 2021, published 2025).

Assay [1] concerns the target T1, 5-HT2A (Homo sapiens, UniProt P28223). Put plainly: Serotonin 5-HT2A in vitro cellular IPOne agonism assay (HTRF). Format: cell-based. Set-up: host or cells: CHO-K1. Particulars: CHO-K1 cells, agonist mode. The protocol: Serotonin 5-HT2A In Vitro Cellular IPOne Agonism Assay. The 5-HT2A IPOne HTRF assay was performed at Epics Therapeutics S.A. (Belgium, FAST-0505I) using conventional methods. Briefly, CHO-K1 cells expressing human recombinant 5-HT2A receptor grown to mid-log phase in culture media without antibiotics were detached with PBS-EDTA, centrifuged, and resuspended in medium without antibiotics buffer. 20,000 cells were distributed in a 96 well plate and incubated overnight at 37° C. with 5% Co2.
For agonist testing, the medium was removed and 20 μl of assay buffer plus 20 μl of test compound or reference agonist were added in each well. The plate was incubated for 60 min. at 37° C. with 5% CO2.
(§1) After addition of the lysis buffer containing IP1-d2 and anti-IP1 cryptate detection reagents, plates were incubated 1-hour at room temperature, and fluorescence ratios were measured according to the manufacturer specification, with the HTRF kit.

In assay [2] the target is T1, 5-HT2A. Put plainly: Serotonin 5-HT2A in vitro cellular IPOne antagonism assay (HTRF). Format: cell-based. The conditions noted are these: CHO-K1 cells, reference agonist α-Me-5HT; read-out: 5-HT2A IPOne Antagonist Activity. The arrangement: host or cells: CHO-K1. As to the method: Serotonin 5-HT2A In Vitro Cellular IPOne Antagonism Assay. The 5-HT2A IPOne HTRF assay was performed at Epics Therapeutics S.A. (Belgium, FAST-O0505) in antagonism mode using conventional methods. Briefly, CHO-K1 cells expressing human recombinant 5-HT2A receptor grown to mid-log phase in culture media without antibiotics were detached with PBS-EDTA, centrifuged, and resuspended in medium without antibiotics buffer. 20,000 cells were distributed in a 96 well plate and incubated overnight at 37° C. with 5% Co2.
For antagonist testing, a reference agonist α-Me-5HT was added and fluorescence signal monitored for several minutes, followed by addition of 20 μl of assay buffer plus 20 μl of test compound or reference antagonist ketanserin, in each well. The plate was incubated for 60 min. at 37° C. with 5% CO2.
as §1
(In general: TR-FRET usually uses a lanthanide donor and a delayed reading to cut background.)

Assay [3] concerns the target T1, 5-HT2A. Put plainly: Serotonin 5-HT2A in vitro radioligand binding competition assay ([3H]-DOI). Set-up: purchased Epics Therapeutics S.A. (Belgium) FAST-0505B. The conditions noted are these: [3H]-DOI radiotracer, membrane extracts. As to the method:
Serotonin 5-HT2A In Vitro Radioligand Binding Competition Assay. The 5-HT2A radioligand binding competition assay was performed at Epics Therapeutics S.A. (Belgium, FAST-0505B) using conventional methods. Briefly, competition binding was performed in duplicate in the wells of a 96 well plate (Master Block, Greiner, 786201) containing binding buffer (optimized for each receptor), membrane extracts (amount of protein/well optimized for each receptor), radiotracer [^3H]-DOI (final concentration optimized for each receptor) and test compound. Nonspecific binding was determined by co-incubation with 200-fold excess of cold competitor. The samples were incubated in a final volume of 0.1 ml at a temperature and for a duration optimized for each receptor and then filtered over filter plates. Filters were washed six times with 0.5 ml of ice-cold washing buffer (optimized for each receptor) and 50 μl of Microscint 20 (Packard) were added in each well. The plates were incubated 15 min on an orbital shaker and then counted with a TopCount™ for 1 min/well.

For another assay, the system named is mice. The conditions noted are these: mouse, in vivo; cited from earlier work.
The subject of assay [4] is 5HT2A sensor. The conditions noted are these: cited from earlier work.
For assay [5], the system named is 5HT2A sensor. Particulars: cited from earlier work. The source holds these as a separate data set.

T1 sequence (P28223 whole entry): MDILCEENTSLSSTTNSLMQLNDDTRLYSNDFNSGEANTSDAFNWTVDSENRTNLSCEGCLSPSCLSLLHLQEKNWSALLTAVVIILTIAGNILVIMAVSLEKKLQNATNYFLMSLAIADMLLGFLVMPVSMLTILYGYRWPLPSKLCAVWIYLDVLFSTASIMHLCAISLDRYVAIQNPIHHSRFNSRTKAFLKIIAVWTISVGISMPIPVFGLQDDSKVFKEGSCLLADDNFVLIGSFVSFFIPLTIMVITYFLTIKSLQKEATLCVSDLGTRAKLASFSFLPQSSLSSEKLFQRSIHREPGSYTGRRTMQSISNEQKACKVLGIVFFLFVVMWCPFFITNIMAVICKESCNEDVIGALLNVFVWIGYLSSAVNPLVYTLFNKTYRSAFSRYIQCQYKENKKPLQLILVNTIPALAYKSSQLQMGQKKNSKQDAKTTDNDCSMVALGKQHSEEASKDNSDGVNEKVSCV

Regarding `CC(Cc1ncc2cc(F)ccn12)N(C)C` (centres unmarked) [Compound 17, 1-(7-fluoroimidazo[1,5-a]pyridin-3-yl)-N,N-dimethylpropan-2-amine], at 5-HT2A [1], the EC50 (as a rule, the concentration needed to bring the measured effect to its halfway point) was > 10000 nM. For the same molecule, the IC50 on 5-HT2A [2] and on 5-HT2A [3] was 101 to 1000 nM in each case.
Turning to 5-MeO-DMT [Compound 5-MeO-DMT], in the assay with mice, the “head-twitch response (HTR)” value was “robust, dose-dependent head-twitch response”. The “activation of the 5HT2A sensor assay in agonist mode” value (“activation of the 5HT2A sensor assay” for short) in the assay with 5HT2A sensor [4] was “activate the 5HT2A sensor assay in agonist mode”.
Consider `CC(Cc1ncc2ccccn12)N(C)C` (centres unmarked) [Compound 15, 1-(imidazo [1,5-a]pyridin-3-yl)-N,N-dimethylpropan-2-amine], for which the EC50 on 5-HT2A [1] is > 10000 nM. Besides, the IC50 on 5-HT2A [2] and at 5-HT2A [3] was 1000 to 10000 nM each time.
`Cc1cccn2c(CC(C)N)ncc12` (centres unmarked) [Compound 8, 1-(8-methylimidazo[1,5-a]pyridin-3-yl)propan-2-amine] registered a concentration giving a half-maximal response (EC50) at 5-HT2A [1] of 1000 to 10000 nM. Also, the results for the IC50 on 5-HT2A [2] and at 5-HT2A [3] were > 10000 nM and 1000 to 10000 nM, respectively.
Consider `CN1CCCC1Cc1ncc2ccccn12` (centres unmarked) [Compound 31, 3-((1-Methylpyrrolidin-2-yl)methyl)imidazo[1,5-a]pyridine], for which the EC50 on 5-HT2A [1] is > 10000 nM. The values for the IC50 at 5-HT2A [2] and at 5-HT2A [3] were 101 to 1000 nM and 1000 to 10000 nM, respectively.
The like results for `CC(Cc1ncn2ccccc12)N(C)C` (centres unmarked) [Compound 44, 1-(imidazo [1,5-a]pyridin-1-yl)-N,N-dimethylpropan-2-amine] were, in that order, > 10000 nM, 101 to 1000 nM and 1000 to 10000 nM.
Consider `O=C(c1ccc(F)cc1)C1CCN(CCn2c(=O)[nH]c3ccccc3c2=O)CC1` [Ketanserin], for which the “activation of the 5HT2A sensor assay” value with 5HT2A sensor [4] is given as “do not activate the 5HT2A sensor assay in agonist mode”. Moreover, in the assay on 5HT2A sensor [5], the “competition with 5-HT in the 5HT2A sensor assay in antagonist mode” value (“competition with 5-HT” below) is recorded as “can compete with 5HT binding to 5HT2A”.
For the molecule BOL148, the “activation of the 5HT2A sensor assay” value in the assay with 5HT2A sensor [4] was “do not activate the 5HT2A sensor assay in agonist mode”. Besides, in the assay with 5HT2A sensor [5], the “competition with 5-HT” value is “can compete with 5HT binding to 5HT2A”.
As to `CN(C)CCc1ncc2ccccn12` [Compound 14, 2-(Imidazo[1,5-a]pyridin-3-yl)-N,N-dimethylethan-1-amine], the half-maximal effective concentration (EC50) at 5-HT2A [1] is > 10000 nM. Also, the IC50 at 5-HT2A [2] and on 5-HT2A [3] was 1000 to 10000 nM each time.
On to `CN1CCC(c2ncc3ccccn23)C1` (centres unmarked) [Compound 32, 3-(1-methylpyrrolidin-3-yl)imidazo[1,5-a]pyridine], for which the half-maximal effective concentration (EC50) at 5-HT2A [1] was > 10000 nM. Moreover, the IC50 at 5-HT2A [2] is 1000 to 10000 nM; at 5-HT2A [3], 101 to 1000 nM.
The matching figures for `CN(C)CCc1ncn2ccccc12` [Compound 43, 2-(imidazo [1,5-a]pyridin-1-yl)-N,N-dimethylethan-1-amine]: > 10000 nM, 101 to 1000 nM and 1000 to 10000 nM.
Take `CC(Cc1ncc2ccccn12)N1CCCC1` (centres unmarked) [Compound 27, 3-(2-(pyrrolidin-1-yl)propyl)imidazo[1,5-a]pyridine]: on 5-HT2A [1], the concentration for a half-maximal effect (EC50) is > 10000 nM. For the same molecule, the IC50 at 5-HT2A [2] and on 5-HT2A [3] was 1000 to 10000 nM in each case.
For the molecule `CC(C)NC(C)Cc1ncc2ccccn12` (centres unmarked) [Compound 26, 1-(imidazo [1,5-a]pyridin-3-yl)-N-isopropylpropan-2-amine], the EC50 on 5-HT2A [1] was > 10000 nM. Also, the IC50 on 5-HT2A [2] and on 5-HT2A [3] was 101 to 1000 nM in each case.
With `C[C@H](Cc1ncc2ccccn12)N(C)C` [Compound 30, (R)-1-(imidazo[1,5-a]pyridin-3-yl)-N,N-dimethylpropan-2-amine], the concentration giving a half-maximal response (EC50) at 5-HT2A [1] was > 10000 nM. Moreover, the figures for the IC50 on 5-HT2A [2] and on 5-HT2A [3] were 1000 to 10000 nM and 101 to 1000 nM, respectively.
The matching figures for `c1ccn2c(CC3CCCN3)ncc2c1` (centres unmarked) [Compound 13, 3-(Pyrrolidin-2-ylmethyl)imidazo[1,5-a]pyridine]: > 10000 nM, 1000 to 10000 nM and 1000 to 10000 nM.
With 6-F-DET [Compound 6-F-DET], the “activation of the 5HT2A sensor assay” value in the assay with 5HT2A sensor [4] is “do not activate the 5HT2A sensor assay in agonist mode”. Besides, the “competition with 5-HT” value in the assay with 5HT2A sensor [5] is “can compete with 5HT binding to 5HT2A”.
Regarding L-MDMA, in the assay on 5HT2A sensor [4], the “activation of the 5HT2A sensor assay” value is “do not activate the 5HT2A sensor assay in agonist mode”.
For `CN(C)CCc1c[nH]c2ccccc12` [DMT, N,N-dimethyltryptamine], the “activation of the 5HT2A sensor assay” value in the assay on 5HT2A sensor [4] is “activate the 5HT2A sensor assay in agonist mode”.
As for 6-MeO-DMT [Compound 6-MeO-DMT], in the assay on mice, the “head-twitch response (HTR)” value was “does not produce a HTR”. In the assay on 5HT2A sensor [4], the “activation of the 5HT2A sensor assay” value is “do not activate the 5HT2A sensor assay in agonist mode”. Moreover, in the assay on 5HT2A sensor [5], the “competition with 5-HT” value was “compete off 5-HT”.
Turning to `CN(C)C(C)(C)Cc1ncc2ccccn12` [Compound 19, 1-(imidazo [1,5-a]pyridin-3-yl)-N,N,2-trimethylpropan-2-amine], the EC50 at 5-HT2A [1] is > 10000 nM. The IC50 on 5-HT2A [2] and at 5-HT2A [3] was 1000 to 10000 nM each time.
Regarding R-MDMA, the “activation of the 5HT2A sensor assay” value with 5HT2A sensor [4] is on record as “do not activate the 5HT2A sensor assay in agonist mode”.
In the case of `c1ccn2c(C3CCNC3)ncc2c1` (centres unmarked) [Compound 12, 3-(Pyrrolidin-3-yl)imidazo[1,5-a]pyridine], the EC50 on 5-HT2A [1] was > 10000 nM. Further, the IC50 on 5-HT2A [2] and on 5-HT2A [3] was 1000 to 10000 nM throughout.
The molecule `Cc1ccn2c(CC(C)N)ncc2c1` (centres unmarked) [Compound 9, 1-(7-methylimidazo[1,5-a]pyridin-3-yl)propan-2-amine] returned an EC50 at 5-HT2A [1] of 1000 to 10000 nM. Moreover, the IC50 on 5-HT2A [2] is > 10000 nM; at 5-HT2A [3], 1000 to 10000 nM.
Consider `CC(N)Cc1ncc2cc(F)ccn12` (centres unmarked) [Compound 4, 1-(7-fluoroimidazo[1,5-a]pyridin-3-yl)propan-2-amine], for which, on 5-HT2A [1], the concentration for a half-maximal effect (EC50) was > 10000 nM. The IC50 lay within 1000 to 10000 nM on 5-HT2A [2] and 101 to 1000 nM at 5-HT2A [3].
The matching figures for `CC(C)(N)Cc1ncc2ccccn12` [Compound 6, 1-(imidazo [1,5-a]pyridin-3-yl)-2-methylpropan-2-amine]: > 10000 nM, 101 to 1000 nM and 1000 to 10000 nM.
